Assay results reported in the supplement of paper PMC10307832.

Assays:
Assay in all cases: relative viability (nuclei count vs DMSO), 5 days (fraction); higher = more cells survive
[1] = compound: C1CC2=C(C1)C=C(C=C2)OC3=NC(=C4C(=N3)N(C=N4)CC5=CC=C(C=C5)C6=CC=CC=C6)N[C@@H](CC7=CC=CC=C7)CO [QS11] + CC(C)C[C@H](NC(=O)[C@H](Cc1ccccc1)NC(=O)c1cnccn1)B(O)O [Bortezomib] (partner 0.002 µM)
In short: (§1)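 Cells from lung cancer lines were seeded into 1536-well plates and, one day later, dosed by pin tool. Treatments were either a single drug or a fixed dose of an anchor drug with five library-drug doses (not always all listed) in √10 steps. After 5 days, nuclei were stained in a one-step fixation (final 0.05% Triton X-100, 1% formaldehyde, 1 ug/ml Hoechst) and counted on 4× images, and relative viability is the treated-to-vehicle nuclei ratio, as the median of duplicate plates.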

[2] = compound: CC1=C(C=C(C=C1)NC(=O)C2=CC(=CC=C2)C(C)(C)C#N)NC3=CC4=C(C=C3)N=CN(C4=O)C [AZ628] + Cc1nc(Nc2ncc(C(=O)Nc3c(C)cccc3Cl)s2)cc(N2CCN(CCO)CC2)n1 [Dasatinib] (partner 0.075 µM)
In short: as §1

[3] = compound: CC1=C(C=C(C=C1)NC(=O)C2=CC(=CC=C2)C(C)(C)C#N)NC3=CC4=C(C=C3)N=CN(C4=O)C [AZ628] + CC(C)C[C@H](NC(=O)[C@H](Cc1ccccc1)NC(=O)c1cnccn1)B(O)O [Bortezomib] (partner 0.002 µM)
In short: as §1

[4] = compound: CC1=C(C=C(C=C1)NC(=O)C2=CC(=CC=C2)C(C)(C)C#N)NC3=CC4=C(C=C3)N=CN(C4=O)C [AZ628] + C[C@@H](Oc1cc(-c2cnn(C3CCNCC3)c2)cnc1N)c1c(Cl)ccc(F)c1Cl [Crizotinib] (partner 1 µM)
In short: as §1

Row | Cell Line | relative viability ([1]; first compound 0.08 µM) | relative viability ([1]; first compound 0.253 µM) | relative viability ([1]; first compound 0.8 µM) | relative viability ([1]; first compound 2.53 µM) | relative viability ([1]; first compound 8 µM) | relative viability ([2]; first compound 0.08 µM) | relative viability ([2]; first compound 0.253 µM) | relative viability ([2]; first compound 0.8 µM) | relative viability ([2]; first compound 2.53 µM) | relative viability ([2]; first compound 8 µM) | relative viability ([3]; first compound 0.08 µM) | relative viability ([3]; first compound 0.253 µM) | relative viability ([3]; first compound 0.8 µM) | relative viability ([3]; first compound 2.53 µM) | relative viability ([3]; first compound 8 µM) | relative viability ([4]; first compound 0.08 µM) | relative viability ([4]; first compound 0.253 µM) | relative viability ([4]; first compound 0.8 µM) | relative viability ([4]; first compound 2.53 µM) | relative viability ([4]; first compound 8 µM)
1 | COR-L23 | 1.08 | 1.13 | 0.86 | 0.942 | 0.765 | 0.499 | 0.465 | 0.493 | 0.447 | 0.347 | 1.04 | 1.04 | 0.97 | 1.14 | 0.645 | 0.619 | 0.736 | 0.666 | 0.59 | 0.365
2 | NCI-H1734 | 0.932 | 0.913 | 0.848 | 0.822 | 0.738 | 0.424 | 0.552 | 0.525 | 0.511 | 0.349 | 0.969 | 0.809 | 0.903 | 0.756 | 0.562 | 0.561 | 0.574 | 0.568 | 0.621 | 0.381
3 | NCI-H23 | 1.03 | 0.926 | 0.978 | 0.722 | 1 | 0.708 | 0.75 | 0.44 | 0.509 | 0.302 | 1.12 | 1.01 | 0.805 | 0.887 | 0.551 | 0.498 | 0.49 | 0.347 | 0.493 | 0.456
4 | NCI-H647 | 0.938 | 0.987 | 0.976 | 1.08 | 0.894 | 0.193 | 0.173 | 0.217 | 0.14 | 0.15 | 0.984 | 0.905 | 0.903 | 0.947 | 1.28 | 1.24 | 1.03 | 1.04 | 0.984 | 0.793
5 | NCI-H1563 | 0.822 | 0.825 | 0.853 | 0.769 | 0.722 | 0.477 | 0.436 | 0.469 | 0.487 | 0.475 | 0.898 | 0.856 | 0.894 | 0.855 | 0.95 | 0.892 | 0.825 | 0.872 | 0.833 | 0.938
6 | NCI-H1915 | 0.985 | 1.08 | – | 0.967 | 0.979 | 0.327 | 0.293 | 0.249 | 0.199 | 0.139 | 0.939 | 1.02 | 0.771 | 0.598 | 0.716 | 0.976 | 0.919 | 0.869 | 0.727 | 0.495
7 | 201T | 1.12 | 1.09 | 0.921 | 1.16 | 0.961 | 0.592 | 0.533 | 0.53 | 0.513 | 0.471 | 1.15 | 1.13 | 1.13 | 1.16 | 1.21 | 1.05 | 0.999 | 1.06 | 1.06 | 1.08
8 | NCI-H3122 | 1.03 | 1.1 | 0.67 | 1.07 | 0.864 | 0.819 | 0.39 | 0.15 | 0.212 | 0.176 | 0.987 | 0.887 | 0.723 | 0.696 | 0.444 | 0.349 | 0.252 | 0.29 | 0.238 | 0.234
9 | HCC-78 | 0.478 | 0.484 | 0.457 | 0.486 | 0.544 | 0.514 | 0.338 | 0.417 | 0.394 | 0.367 | 0.675 | 0.457 | 0.586 | 0.487 | 0.623 | 0.404 | 0.403 | 0.38 | 0.413 | 0.4
10 | HARA | 1.25 | 1.19 | – | 1.05 | 1.24 | 0.322 | 0.227 | 0.175 | 0.247 | 0.198 | 1.1 | 1.08 | 1.08 | 1.03 | 0.568 | 0.904 | 1.05 | 0.951 | 0.82 | 0.476
11 | NCI-H2347 | 1.11 | 1.19 | 0.757 | 0.997 | 1.04 | 0.272 | 0.278 | 0.22 | 0.252 | 0.163 | 0.859 | 0.962 | 0.721 | 0.828 | 0.623 | 0.689 | 0.832 | 0.709 | 0.589 | 0.443
12 | NCI-H1437 | 0.569 | 0.325 | 0.459 | 0.402 | 0.336 | 0.415 | 0.242 | 0.275 | 0.43 | 0.39 | 0.488 | 0.544 | 0.425 | 0.486 | 0.556 | 0.869 | 0.822 | 0.899 | 0.995 | 0.932
13 | LXF-289 | 1 | 0.996 | 0.791 | 0.819 | 0.614 | 0.192 | 0.23 | 0.279 | 0.274 | 0.167 | 0.994 | 1.03 | 0.915 | 0.917 | 0.648 | 0.791 | 0.749 | 0.768 | 0.76 | 0.497
14 | NCI-H1792 | – | 1.06 | 0.684 | 1.01 | 1.07 | 0.901 | 0.595 | 0.513 | 0.584 | 0.299 | 1.06 | 0.925 | 0.857 | 0.923 | 0.555 | 1.08 | 0.916 | 0.771 | 0.881 | 0.633
15 | LU99A | 0.878 | 1.37 | 1.17 | 1.11 | 0.706 | 0.527 | 0.625 | 0.52 | 0.492 | 0.242 | 1.15 | 1.21 | 1.31 | 1.07 | 0.451 | 0.601 | 0.505 | 0.586 | 0.566 | 0.286
16 | NCI-H1666 | 0.83 | 0.722 | 0.74 | 0.719 | 0.564 | 0.812 | 0.733 | 0.669 | 0.665 | 0.668 | 0.812 | 0.715 | 0.567 | 0.621 | 0.705 | 1.09 | 0.901 | 0.819 | 0.761 | 0.632
